Test results from ChEMBL document CHEMBL1135510, “Common and selective molecular determinants involved in metabotopic glutamate receptor agonist activity” (J Med Chem, 2002).

Experiments:
[1] = biological target: T1, Metabotropic glutamate receptor 2 (Homo sapiens, UniProt Q14416); experiment: Binding affinity at Metabotropic glutamate receptor 2; parameters: species or system Rattus norvegicus
Target sequence in this assay (Q14416 whole entry): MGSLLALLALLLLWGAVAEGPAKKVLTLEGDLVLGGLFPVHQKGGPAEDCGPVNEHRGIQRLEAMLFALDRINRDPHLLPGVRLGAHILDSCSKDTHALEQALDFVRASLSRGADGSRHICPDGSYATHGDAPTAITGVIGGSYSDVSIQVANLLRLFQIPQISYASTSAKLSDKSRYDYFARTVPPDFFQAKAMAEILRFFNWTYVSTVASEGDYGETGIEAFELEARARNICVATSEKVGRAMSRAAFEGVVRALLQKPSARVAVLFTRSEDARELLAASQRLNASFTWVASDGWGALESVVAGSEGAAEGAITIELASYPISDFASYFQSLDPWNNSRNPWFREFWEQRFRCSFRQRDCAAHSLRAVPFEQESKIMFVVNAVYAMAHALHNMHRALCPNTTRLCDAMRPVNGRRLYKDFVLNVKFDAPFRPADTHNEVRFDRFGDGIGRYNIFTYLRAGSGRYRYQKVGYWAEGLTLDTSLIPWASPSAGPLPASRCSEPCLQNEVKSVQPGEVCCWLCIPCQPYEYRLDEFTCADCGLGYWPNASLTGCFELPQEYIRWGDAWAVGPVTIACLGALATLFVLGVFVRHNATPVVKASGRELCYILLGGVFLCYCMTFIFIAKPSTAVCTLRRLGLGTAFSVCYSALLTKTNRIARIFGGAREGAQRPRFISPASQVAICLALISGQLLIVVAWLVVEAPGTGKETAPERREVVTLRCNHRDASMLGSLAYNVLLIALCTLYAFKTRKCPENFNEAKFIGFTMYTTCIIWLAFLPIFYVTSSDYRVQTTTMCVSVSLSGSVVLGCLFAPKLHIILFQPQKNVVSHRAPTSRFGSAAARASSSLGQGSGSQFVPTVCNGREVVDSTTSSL

[2] = biological target: Metabotropic glutamate receptor 1 (Rattus norvegicus, UniProt P23385); experiment: Inhibition of binding to rat mGluR1a (metabotropic glutamate receptor) expressed in HEK-293 cells; type: cell-based, HEK293
[3] = biological target: T2, Metabotropic glutamate receptor 4 (Homo sapiens, UniProt Q14833); experiment: Binding affinity at Metabotropic glutamate receptor 4; parameters: species or system Rattus norvegicus
[4] = biological target: Metabotropic glutamate receptor 1 (Homo sapiens) (UniProt Q13255); experiment: Potency at metabotropic glutamate receptor 1, measured as the ratio of EC50 to IC50; No effect at 1 mM
[5] = biological target: T1, Metabotropic glutamate receptor 2; experiment: Potency at metabotropic glutamate receptor 2, measured as the ratio of EC50 to IC50; No effect at 1 mM
Target sequence in this assay (Q14416 19-872 limits assumed): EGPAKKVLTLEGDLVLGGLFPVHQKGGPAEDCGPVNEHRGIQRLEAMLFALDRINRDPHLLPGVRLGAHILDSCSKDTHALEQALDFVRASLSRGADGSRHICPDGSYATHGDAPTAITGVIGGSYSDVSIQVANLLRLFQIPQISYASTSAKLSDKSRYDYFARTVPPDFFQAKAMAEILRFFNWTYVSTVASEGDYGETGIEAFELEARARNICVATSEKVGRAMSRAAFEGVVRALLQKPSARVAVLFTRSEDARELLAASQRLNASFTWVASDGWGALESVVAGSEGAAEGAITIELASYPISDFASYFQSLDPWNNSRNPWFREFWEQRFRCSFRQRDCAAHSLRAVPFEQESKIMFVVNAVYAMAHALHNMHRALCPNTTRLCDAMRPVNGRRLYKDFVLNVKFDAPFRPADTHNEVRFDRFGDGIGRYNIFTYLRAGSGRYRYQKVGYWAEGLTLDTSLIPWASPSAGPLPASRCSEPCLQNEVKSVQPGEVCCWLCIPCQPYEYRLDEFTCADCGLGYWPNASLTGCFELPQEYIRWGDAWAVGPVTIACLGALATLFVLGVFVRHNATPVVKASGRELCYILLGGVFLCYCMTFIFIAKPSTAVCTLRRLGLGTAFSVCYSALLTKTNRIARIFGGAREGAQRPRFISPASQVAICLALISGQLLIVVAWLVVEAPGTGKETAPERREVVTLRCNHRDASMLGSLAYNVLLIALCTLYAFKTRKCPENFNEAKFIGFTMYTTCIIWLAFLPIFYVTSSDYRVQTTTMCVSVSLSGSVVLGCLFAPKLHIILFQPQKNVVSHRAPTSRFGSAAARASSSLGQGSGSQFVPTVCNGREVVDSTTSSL

[6] = biological target: T2, Metabotropic glutamate receptor 4; experiment: Potency at metabotropic glutamate receptor 4, measured as the ratio of EC50 to IC50; No effect at 1 mM
[7] = biological target: T1, Metabotropic glutamate receptor 2; experiment: Potency at Metabotropic glutamate receptor 2, measured as the ratio of EC50 to IC50; No effect at 1 mM
Target sequence in this assay (Q14416 19-872 limits assumed): as above

[8] = biological target: Metabotropic glutamate receptor 1 (Homo sapiens) (UniProt Q13255); experiment: Potency at Metabotropic glutamate receptor 1, measured as the ratio of EC50 to IC50; No effect at 1 mM

T2 sequence (Q14833 whole entry): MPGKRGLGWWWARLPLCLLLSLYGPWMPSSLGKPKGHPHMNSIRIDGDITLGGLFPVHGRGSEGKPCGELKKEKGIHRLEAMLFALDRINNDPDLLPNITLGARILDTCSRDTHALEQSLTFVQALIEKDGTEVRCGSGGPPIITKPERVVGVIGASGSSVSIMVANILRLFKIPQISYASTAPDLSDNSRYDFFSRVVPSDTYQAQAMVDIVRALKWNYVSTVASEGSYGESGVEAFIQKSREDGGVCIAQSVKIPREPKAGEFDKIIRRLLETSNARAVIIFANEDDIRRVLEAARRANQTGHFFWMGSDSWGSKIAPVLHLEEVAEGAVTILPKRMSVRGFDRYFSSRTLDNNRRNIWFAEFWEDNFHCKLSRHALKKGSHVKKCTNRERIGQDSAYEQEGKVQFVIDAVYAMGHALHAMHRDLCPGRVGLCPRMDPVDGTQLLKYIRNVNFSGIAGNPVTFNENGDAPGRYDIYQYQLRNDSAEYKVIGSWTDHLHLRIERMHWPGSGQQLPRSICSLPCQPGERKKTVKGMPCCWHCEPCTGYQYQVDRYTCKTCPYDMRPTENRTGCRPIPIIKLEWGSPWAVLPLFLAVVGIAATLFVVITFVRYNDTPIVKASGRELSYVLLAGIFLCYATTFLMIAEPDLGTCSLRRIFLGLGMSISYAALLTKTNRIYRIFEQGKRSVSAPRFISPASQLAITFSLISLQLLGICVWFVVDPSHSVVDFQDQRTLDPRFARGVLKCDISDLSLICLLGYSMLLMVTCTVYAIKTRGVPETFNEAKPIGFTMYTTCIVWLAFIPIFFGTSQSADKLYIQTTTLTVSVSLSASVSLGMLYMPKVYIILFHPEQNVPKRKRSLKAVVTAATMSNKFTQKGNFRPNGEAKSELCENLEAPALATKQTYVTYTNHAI
Chain of Metabotropic glutamate receptor 1 (P23385 whole entry): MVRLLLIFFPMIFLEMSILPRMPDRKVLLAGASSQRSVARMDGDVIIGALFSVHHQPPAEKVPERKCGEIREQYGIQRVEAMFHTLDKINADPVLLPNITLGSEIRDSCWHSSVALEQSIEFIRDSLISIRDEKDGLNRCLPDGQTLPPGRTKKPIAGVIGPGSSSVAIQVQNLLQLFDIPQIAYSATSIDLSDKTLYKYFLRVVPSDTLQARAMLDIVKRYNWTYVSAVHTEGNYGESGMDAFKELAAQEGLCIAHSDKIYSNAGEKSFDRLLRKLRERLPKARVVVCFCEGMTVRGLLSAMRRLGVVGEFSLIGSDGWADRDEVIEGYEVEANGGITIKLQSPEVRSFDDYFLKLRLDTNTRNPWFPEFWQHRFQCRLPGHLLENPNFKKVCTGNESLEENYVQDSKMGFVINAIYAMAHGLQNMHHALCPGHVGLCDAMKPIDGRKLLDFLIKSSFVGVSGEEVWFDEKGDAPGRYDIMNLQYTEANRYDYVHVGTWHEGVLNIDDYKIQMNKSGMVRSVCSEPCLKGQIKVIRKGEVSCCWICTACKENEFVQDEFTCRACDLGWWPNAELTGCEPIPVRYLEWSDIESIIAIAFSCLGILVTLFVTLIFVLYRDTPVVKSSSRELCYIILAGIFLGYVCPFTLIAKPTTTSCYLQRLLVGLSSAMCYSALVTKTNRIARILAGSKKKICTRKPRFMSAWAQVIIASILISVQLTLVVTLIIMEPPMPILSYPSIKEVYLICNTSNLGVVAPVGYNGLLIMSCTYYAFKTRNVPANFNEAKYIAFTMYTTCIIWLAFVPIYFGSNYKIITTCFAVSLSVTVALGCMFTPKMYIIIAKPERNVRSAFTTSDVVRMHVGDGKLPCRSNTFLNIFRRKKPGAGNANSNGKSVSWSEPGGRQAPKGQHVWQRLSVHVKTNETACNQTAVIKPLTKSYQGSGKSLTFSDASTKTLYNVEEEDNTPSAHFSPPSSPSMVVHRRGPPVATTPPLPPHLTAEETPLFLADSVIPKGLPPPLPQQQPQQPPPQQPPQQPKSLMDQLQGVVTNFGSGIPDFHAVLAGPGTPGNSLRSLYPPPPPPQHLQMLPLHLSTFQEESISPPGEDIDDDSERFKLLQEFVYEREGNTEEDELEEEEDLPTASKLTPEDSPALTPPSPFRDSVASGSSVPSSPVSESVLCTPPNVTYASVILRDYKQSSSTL
Chain of Metabotropic glutamate receptor 1 (Homo sapiens) (Q13255 19-1194 limits assumed): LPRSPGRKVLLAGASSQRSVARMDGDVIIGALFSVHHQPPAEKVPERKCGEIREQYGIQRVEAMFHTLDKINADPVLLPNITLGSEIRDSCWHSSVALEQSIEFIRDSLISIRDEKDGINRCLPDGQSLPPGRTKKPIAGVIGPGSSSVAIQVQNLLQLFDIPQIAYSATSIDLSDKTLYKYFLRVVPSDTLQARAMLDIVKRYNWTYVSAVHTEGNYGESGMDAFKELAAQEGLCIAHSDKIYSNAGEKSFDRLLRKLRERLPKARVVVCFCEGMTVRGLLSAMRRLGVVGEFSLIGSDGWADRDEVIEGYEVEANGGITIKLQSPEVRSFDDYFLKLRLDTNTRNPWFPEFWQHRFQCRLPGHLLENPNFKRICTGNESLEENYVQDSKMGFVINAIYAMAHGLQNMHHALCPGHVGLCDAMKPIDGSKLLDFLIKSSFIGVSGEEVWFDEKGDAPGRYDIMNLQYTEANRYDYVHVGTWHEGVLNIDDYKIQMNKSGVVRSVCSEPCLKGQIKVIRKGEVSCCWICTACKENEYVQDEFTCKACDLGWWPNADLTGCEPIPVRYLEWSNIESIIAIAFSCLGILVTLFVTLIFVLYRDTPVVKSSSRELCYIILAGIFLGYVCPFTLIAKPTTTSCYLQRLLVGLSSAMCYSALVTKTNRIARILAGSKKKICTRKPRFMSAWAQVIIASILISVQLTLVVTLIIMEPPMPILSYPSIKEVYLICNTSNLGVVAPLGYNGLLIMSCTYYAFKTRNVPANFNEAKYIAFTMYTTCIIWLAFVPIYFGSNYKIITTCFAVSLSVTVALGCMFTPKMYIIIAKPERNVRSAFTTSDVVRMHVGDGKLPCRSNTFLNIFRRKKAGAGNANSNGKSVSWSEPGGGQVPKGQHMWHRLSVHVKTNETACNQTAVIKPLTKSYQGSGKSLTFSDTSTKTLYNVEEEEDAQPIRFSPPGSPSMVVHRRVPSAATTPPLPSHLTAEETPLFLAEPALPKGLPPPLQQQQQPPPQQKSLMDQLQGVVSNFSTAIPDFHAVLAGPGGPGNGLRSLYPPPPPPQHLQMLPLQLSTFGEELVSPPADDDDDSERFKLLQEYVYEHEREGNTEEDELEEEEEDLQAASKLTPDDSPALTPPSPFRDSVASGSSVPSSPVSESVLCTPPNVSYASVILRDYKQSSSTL

Question: What does the source list for N[C@H](C(=O)O)C1[C@@H](C(=O)O)[C@@H]1C(=O)O (some centres undefined)?
Answer: Ki [1]: 0.11 µM; Ki [2]: 77 µM

Question: N[C@H](C(=O)O)c1ccc(C(=O)O)cc1 was tested. Which Ki [3] did it give?
Answer: 838 µM

Question: What about the Ki [2] of the same molecule?
Answer: 3.7 µM

Question: With N[C@@H](Cn1oc(=O)[nH]c1=O)C(=O)O [QUISQUALATE] as the molecule, how does the Ki [3] read?
Answer: 112 µM

Question: And the Ki [1]?
Answer: 113 µM

Question: How did the Ki [3] turn out when N[C@@H](CCP(=O)(O)O)C(=O)O was run?
Answer: 0.47 µM

Question: And the Ki [1]?
Answer: 129 µM

Question: What about the Ki [2] of the same molecule?
Answer: > 1000 µM

Question: What about the NE [4] of the same molecule?
Answer: No effect at 1 mM

Question: N[C@H](C(=O)O)c1cc(O)cc(O)c1 was tested. Which Ki [1] did it give?
Answer: > 1000 µM

Question: What about the Ki [2] of the same molecule?
Answer: 0.9 µM

Question: What about the NE [5] of the same molecule?
Answer: No effect at 1 mM

Question: What about the NE [6] of the same molecule?
Answer: No effect at 1 mM

Question: Which NE [7] does the source give for N[C@H](C(=O)O)c1ccc(P(=O)(O)O)cc1 here?
Answer: No effect at 1 mM

Question: And the NE [8]?
Answer: No effect at 1 mM

Question: How did the NE [7] turn out when N[C@@]1(C(=O)O)C[C@H](C(=O)O)[C@H](C(=O)O)C1 was run?
Answer: No effect at 1 mM

Question: And the NE [8]?
Answer: No effect at 1 mM

Question: For N[C@@]1(C(=O)O)CC[C@H]2[C@H](C(=O)O)[C@H]21, which Ki [1] is on record?
Answer: 0.013 µM
